The results in this text go back to article PMC9204602, “Optimized Anchor-Modified Peptides Targeting Mutated RAS Are Promising Candidates for Immunotherapy” (Frontiers in Immunology, 2022).

No end group written: not given here.

In general, EC50 refers to the midpoint of the concentration-response curve.

One test deals with HLA-A*02:01 (Homo sapiens, UniProt P04439, D140Y/D185E/D98H/E176V/E277Q/G131W/G231S/I119V/I121R/I166T/I218V/L300P/L318F/N151K/N90K/P208A/P217A/Q86G/Q94H/R138H/R169H/T345S). The test is described as follows: MHC-I stabilization assay, TAP-deficient T2 cells. The format is binding.
Conditions: not given
The molecule KLVVVGARGV yielded a concentration giving a half-maximal response (EC50) of 151 µM.
Still for that read-out and setting: the result for KLVVVGASGV reads 72 µM; that for YLVVGASGV, 21.2 µM; that for `CC(C)C[C@H](NC(=O)[C@@H](N)CCCCN)C(=O)N[C@H](C(=O)N[C@H](C(=O)N[C@H](C(=O)NCC(=O)N[C@@H](C)C(=O)N[C@@H](C)C(=O)NCC(=O)N[C@H](C(=O)O)C(C)C)C(C)C)C(C)C)C(C)C`, 50.2 µM.
Still for that read-out and setting: the value for LVVVGARGV was 429 µM; that for LVVVGASGV was 581 µM.
In turn, YLVVGARGV registered a 50% effective concentration (EC50) of 15.6 µM.

The test is the same for the next values; noted with them: Table 1; T2 cells, HLA-A*02:01 stabilization, serum-free RPMI, 4 hours, 37°C, peptide from 100 µM in at least 8 serial dilution steps, flow cytometry MFI (BB7.2); half-maximal MFI; analyzed three times, mean; read-out: EC50 (µM) Binding assay.
On to LVVVGAAGV, for which the EC50 stood at 191 µM.
Turning to YVVVGAAGV, the EC50 is 117 µM.
The same measure, in the same setting: the result for YLVVVGADGV reads 5.68 µM.
Still for that read-out and setting: the result for YLVVGACGV reads 26.1 µM; that for YVVVGADGV, 199 µM; that for LLVVGADGV, 83.4 µM.
The same measure, in the same setting: the value for YLVVVGACGV was 95.5 µM; that for LLVVGARGV was 23.7 µM.
LLVVGAAGV: the EC50 was found to be 17.5 µM.
On the same count and under the same terms, the value for LVVVGADGV was 453 µM; that for YVVVGAVGV was 28.3 µM.
Same read-out and setting: the result for YVVVGACGV reads 138 µM; that for YLVVGADGV, 13.4 µM; that for YLVVVGASGV, 10.7 µM.
The same measure, in the same setting: the value for YVVVGARGV was 51.6 µM.
In the case of LLVVGACGV, the half-maximal effective concentration (EC50) is 73.5 µM.
Same read-out and setting: the result for YVVVGASGV reads 207 µM.
Turning to YLVVGAAGV, the concentration for a half-maximal effect (EC50) was determined as 16.4 µM.
The same measure, in the same setting: the result for LLVVGASGV reads 90.6 µM.
On the same count and under the same terms, the result for YLVVVGAVGV reads 15.5 µM; that for YLVVVGAAGV, 27.7 µM; that for LLVVGAVGV, 25.6 µM.
Still for that read-out and setting: the result for LVVVGACGV reads 619 µM; that for YLVVGAVGV, 22.9 µM.

The target of another test is HLA-A*03:01 (Homo sapiens, UniProt P04439).
Assay: not given
Format: binding.
Conditions: not given
In turn, VVGAAGVGK gave a concentration for a half-maximal effect (EC50) of 277 µM.
On the same count and under the same terms, the value for VVVGARGVGK was 69.7 µM; that for `CC[C@H](C)[C@H](N)C(=O)N[C@@H](CC(C)C)C(=O)N[C@@H](CCCNC(=N)N)C(=O)NCC(=O)N[C@@H](CO)C(=O)N[C@H](C(=O)N[C@@H](C)C(=O)N[C@@H](Cc1c[nH]cn1)C(=O)N[C@@H](CCCCN)C(=O)O)C(C)C` [Flu-NP 265-273, reference compound] was 6.33 µM; that for VVVGAAGVGK was 94 µM.

For the next test, the target named is HLA-A*11:01 (Homo sapiens, UniProt P04439, A114D/D185E/E176A/F33Y/L180Q/S129P/T187R). Kind of test: Cell-based competitive MHC-I-binding assay, CJO-A lymphoblastoid cells.
Conditions: not given
Consider VVGAAGVGK, for which the IC50 amounted to 1.12e-05 M.
Same read-out and setting: the value for `CC[C@H](C)[C@H](NC(=O)[C@@H](N)CO)C(=O)N[C@H](C(=O)N1CCC[C@H]1C(=O)N[C@@H](CO)C(=O)NCC(=O)N1CCC[C@H]1C(=O)N[C@@H](CC(C)C)C(=O)N[C@@H](CCCCN)C(=O)O)[C@@H](C)CC` [Flu-MP 13-21, reference compound] was 1.44e-06 M; that for VVVGARGVGK was 4.61e-05 M; that for VVVGAAGVGK was 7.03e-06 M.

Still in this test, the particulars now being: Table S2; […], competition with 500 nM FITC-labelled KVFPK(FITC)ALINK, serum-free RPMI, 4 hours, 37°C, peptide from 100 µM, flow cytometry; analyzed three times, mean; read-out: EC/IC50 (M) Binding assay: IC50, HLA-A*11:01.
For `CC(C)[C@H](N)C(=O)N[C@H](C(=O)NCC(=O)N[C@@H](C)C(=O)N[C@@H](CO)C(=O)NCC(=O)N[C@H](C(=O)NCC(=O)N[C@@H](CCCCN)C(=O)O)C(C)C)C(C)C`, the IC50 worked out at 1.27e-05 M.
Same read-out and setting: the result for VVGARGVGK reads 0.000157 M; that for `CC(C)[C@H](N)C(=O)N[C@H](C(=O)N[C@H](C(=O)NCC(=O)N[C@@H](C)C(=O)N[C@@H](CO)C(=O)NCC(=O)N[C@H](C(=O)NCC(=O)N[C@@H](CCCCN)C(=O)O)C(C)C)C(C)C)C(C)C`, 1.02e-05 M.

The test system of a further test is transgenic humanized HLA-A2/DR1 mice. Kind of test: Immunization of transgenic humanized HLA-A2/DR1 mice, ex vivo splenocyte stimulation. Format: in vivo, mouse. Particulars: 100 μg peptide s.c. days 0, 14, 21 with 25 μg Poly I:C and 10 μg Pan-DR peptide; splenocytes one week after third injection restimulated overnight with 10 μg/mL peptide, intracellular IFN-γ; 5 mice.
In the case of “MTEYKL L VVGA V GV GKSALTIQLIQNHFVDE [31-mer G12V peptide]”, the “CD8+ T cells in the spleen reacting to the minimal L2-9-mer peptide” value is on record as “about 8%”.

Staying with this test, now noted: same immunization; HLA-A*02:01-positive/G12V-positive CFPAC-1, overnight incubation, intracellular IFN-γ.
As to “MTEYKL L VVGA V GV GKSALTIQLIQNHFVDE [31-mer G12V peptide]”, the “Recognition of CFPAC-1 cells by CD8+ T cells of immunized mice” value was “recognized”.

Staying with this test, now noted: same immunization; ex vivo restimulation with WT-9-mer.
For the molecule “MTEYKL L VVGA V GV GKSALTIQLIQNHFVDE [31-mer G12V peptide]”, the “Recognition of the wild-type peptide by CD8+ T cells of immunized mice” value was “did not recognize”.

The same test, now with this note: same immunization; ex vivo restimulation with original 9-mer.
For “MTEYKL L VVGA V GV GKSALTIQLIQNHFVDE [31-mer G12V peptide]”, the “Share of L2-9-mer-reactive CD8+ T cells that also reacted to the original 9-mer epitope” value is reported as “half”.
